Reference: PMC11870044, “Exploring the Antibacterial and Antiparasitic Activity of Phenylaminonaphthoquinones—Green Synthesis, Biological Evaluation and Computational Study” (International Journal of Molecular Sciences, 2024)
Converted amounts (≈) assume the structure as drawn. Read-outs that look alike come from different tables or passages of the source.

Experiments:
[1] = Experimental log P, shake-flask method n-octanol/water; type: physicochemical; conditions: 25 ± 1 °C
Procedure: The mixture was then allowed to stand for 24 h at the same temperature for further phase separation. A stock solution with a concentration of 0.01 mol per liter in water, pre-saturated with n-octanol, was prepared for each compound. Duplicate test vessels containing a mixture of the stock solution and n-octanol (pre-saturated with water) were shaken on a vortex shaker for 5 min. Phase separation was achieved by centrifugation of the vessels for 3 min at 4000× g (25 ± 1 °C), and the concentration of the solute in the water phase (C water) was measured from their absorbance at 205 nm using a UV spectrophotometer. The partition coefficient was calculated using the following equation. Log Po/w = Log(C n-octanol/C water)
All the measurements were carried out at room temperature (25 ± 1 °C). In order to check the performance of the method, aniline was used as a reference substance.

[2] = test system: Plasmodium falciparum FCR-3 (chloroquine-resistant); test: In vitro antiplasmodial screening, parasitemia by flow cytometry; type: cell-based; design: Plasmodium falciparum FCR-3 Growth Inhibition (%): concentration or dose not given beside the values; conditions: for Plasmodium falciparum FCR-3 Growth Inhibition (%): mean ± SD; for IC50: Plasmodium falciparum, read-out: Plasmodium falciparum FCR-3 IC50
Procedure: (§1) The antimalarial activity assay was performed using Plasmodium falciparum 3D7 (chloroquine-sensitive) and FCR-3 (chloroquine-resistant) reference strains, which were cultured in vitro following the method described by Trager et al. with some modifications.
(§2) The experiments were performed in 96-well culture plates, where the stock solutions of compounds 1–12 (1, 0.1, 0.01, and 0.001 µg/mL) were tested. A total of 100 µL of each product was distributed in triplicate on the culture plates, and 100 µL of a red blood cell suspension (4% hematocrit, final parasitemia of 1% ring stage) was added, resulting in a final volume of 200 µL. The test plates were incubated at 37 °C for 48 h, and parasitemia was determined by flow cytometry (BDFACScalibur). Erythrocytes were taken from each well culture plate, and 100 µL of ethidium bromide (10 µg/mL) was added and incubated for 30 min. A total of 100,000 cells per well culture plate were acquired and analyzed. The IC50 of the pure products was determined by a regression curve of the percentage inhibition of parasite activity as a function of the logarithmic dose. Chloroquine diphosphate was used as the reference drug.

[3] = test system: Plasmodium falciparum 3D7 (chloroquine-sensitive); test: as above; type: cell-based; design: Plasmodium falciparum 3D7 Growth Inhibition (%): concentration or dose not given beside the values; conditions: for Plasmodium falciparum 3D7 Growth Inhibition (%): mean ± SD; for IC50: Plasmodium falciparum
Procedure: as §1, §2

[4] = test system: Proteus mirabilis (ATCC 12453); test: Minimum inhibitory concentration, broth dilution method; type: cell-based
Procedure: (§3) The microorganisms used were Staphylococcus aureus (ATCC 25923), Proteus mirabilis (ATCC 12453) Enterococcus faecalis (ATCC 29212), Escherichia coli (ATCC 25922), Salmonella typhimurium (ATCC 19585), and Klebsiella pneumoniae (ATCC 700603).
(§4) The antimicrobial activity of the phenylaminonaphthoquinones 1–12 was determined by the broth dilution method. The following concentrations were tested: 200, 100, 50, 25, and 12.5 μg/mL. After incubation, the microbial growth was examined. The results are expressed in minimum inhibitory concentration (MIC), the lowest concentration of phenylaminonaphthoquinones with no visible growth. The bactericidal/bacteriostatic activity was determined by sub-cultivation of the samples in normal culture media at appropriate temperatures and incubation times. The MIC of each compound was performed in triplicate. The compounds 1–12 were dissolved in DMSO. Cefazolin and cefotaxime were used as positive controls at the same compound concentrations.

[5] = test system: Escherichia coli (ATCC 25922); test: as above; type: cell-based
Procedure: as §3, §4

[6] = test system: Enterococcus faecalis (ATCC 29212); test: as above; type: cell-based
Procedure: as §3, §4

[7] = test system: Klebsiella pneumoniae (ATCC 700603); test: as above; type: cell-based
Procedure: as §3, §4

[8] = test system: Salmonella typhimurium (ATCC 19585); test: as above; type: cell-based; conditions: Salmonella enterica, read-out: MIC S. typhimurium G−
Procedure: as §3, §4

[9] = test system: Staphylococcus aureus (ATCC 25923); test: as above; type: cell-based; conditions: for MIC: Staphylococcus aureus; for MIC S. aureus G+: broth dilution
Procedure: as §3, §4

[10] = FCR-3 chloroquine-resistant, 48 h
[11] = 3D7 chloroquine-sensitive, 48 h
[12] = FCR3, FCR-3 chloroquine-resistant, 48 h
[13] = 3D7 chloroquine-sensitive, 48 h, read-out: Plasmodium falciparum 3D7 IC50
[14] = ATCC12453, broth dilution, triplicate, read-out: MIC P. mirabilis G+
[15] = ATCC25922, broth dilution, triplicate, read-out: MIC E. coli G−
[16] = ATCC29212, broth dilution, triplicate, read-out: MIC E. faecalis G+
[17] = ATCC700603, broth dilution, triplicate, read-out: MIC K. pneumonia G−
[18] = ATCC25923, broth dilution, triplicate, read-out: MIC S. aureus G+

| Compound | IC50 [2, 12] [µg/mL] | IC50 [3, 13] [µg/mL] | MIC [4, 14] [µg/mL] | MIC [5, 15] [µg/mL] | MIC [6, 16] [µg/mL] | MIC [7, 17] [µg/mL] | MIC ([8]; broth dilution, triplicate) [µg/mL] | MIC [9, 18] [µg/mL] | logP [1] | Plasmodium falciparum FCR-3 Growth Inhibition (%) [2, 10] [%] | Plasmodium falciparum 3D7 Growth Inhibition (%) [3, 11] [%] | MIC S. aureus G+ ([9]; triplicate) [µg/mL] | further results |
| --- | --- | --- | --- | --- | --- | --- | --- | --- | --- | --- | --- | --- | --- |
| O=C1C=C(Nc2ccc(O)cc2)C(=O)c2ccccc21 [Compound 5] | – | – | – | – | – | – | – | – | 1.17 ± 0.81 | 61.0 ± 2.0 | 18.0 ± 1.0 | 3.2 (≈ 12.1 µM) | IC50 ([2]; FCR3, 48 h): 0.78 µg/mL (≈ 2.94 µM); IC50 ([3]; 3D7, 48 h, read-out: Plasmodium falciparum 3D7 IC50): > 1 µg/mL; MIC ([4]; ATCC12453, read-out: MIC P. mirabilis G+): 24.8 µg/mL (≈ 93.5 µM); MIC ([5]; ATCC25922, read-out: MIC E. coli G−): > 50 µg/mL; MIC ([6]; ATCC29212, read-out: MIC E. faecalis G+): > 50 µg/mL; MIC ([7]; ATCC700603, read-out: MIC K. pneumonia G−): > 50 µg/mL; MIC [8]: > 50 µg/mL; MIC ([9]; ATCC25923, read-out: MIC S. aureus G+, broth dilution, triplicate): 3.2 to 5.7 µg/mL (≈ 12.1 to 21.5 µM) |
| O=C1C(Cl)=C(Nc2ccc(O)cc2)C(=O)c2ccccc21 [Compound 6] | 0.87 (≈ 2.9 µM) | > 1 | 29.9 (≈ 99.8 µM) | 39.8 (≈ 133 µM) | 49.9 (≈ 166 µM) | 40 (≈ 133 µM) | 20 (≈ 66.7 µM) | 19.6 (≈ 65.4 µM) | 1.22 ± 0.13 | 56.0 ± 3.0 | 41.0 ± 2.0 | – | – |
| Cc1ccccc1NC1=CC(=O)c2ccccc2C1=O [Compound 3] | 0.12 (≈ 0.456 µM) | 0.0049 | 19.9 (≈ 75.6 µM) | 25.5 (≈ 96.8 µM) | 50 (≈ 190 µM) | 26.3 (≈ 99.9 µM) | 13.2 (≈ 50.1 µM) | 3.2 to 5.7 (≈ 12.2 to 21.6 µM) | 1.89 ± 1.12 | 97.0 ± 0.2 | 98.0 ± 1.0 | 3.8 (≈ 14.4 µM) | Enhancement of antiplasmodial activity versus literature 2-amino/2-phenylaminonaphthoquinones ([3]; 3D7 strain, equimolar comparison): more than 250 fold; Potency relative to chloroquine against 3D7 strain ([3]; IC50 0.0049 vs 0.06 μg/mL): more than 10 fold; IC50 ([3]; 3D7, read-out: IC50 against 3D7 strain at equimolar concentrations): 18.6 nM |
| CCN(CC)CCCC(C)Nc1ccnc2cc(Cl)ccc12 (stereo not drawn) [CQ, chloroquine, reference compound] | – | – | – | – | – | – | – | – | – | – | – | – | IC50 ([2]; FCR3, 48 h): 0.33 µg/mL (≈ 1.03 µM); Plasmodium falciparum 3D7 IC50 [3, 11]: 0.06 µg/mL |

The next lines start with results.

| IC50 [2, 12] [µg/mL] | IC50 [3, 13] [µg/mL] | MIC [4, 14] [µg/mL] | MIC [5, 15] [µg/mL] | MIC [6, 16] [µg/mL] | MIC [7, 17] [µg/mL] | MIC ([8]; broth dilution, triplicate) [µg/mL] | MIC [9, 18] [µg/mL] | Compound | logP [1] | Plasmodium falciparum FCR-3 Growth Inhibition (%) [2, 10] [%] | Plasmodium falciparum 3D7 Growth Inhibition (%) [3, 11] [%] | MIC S. aureus G+ ([9]; triplicate) [µg/mL] | further results |
| --- | --- | --- | --- | --- | --- | --- | --- | --- | --- | --- | --- | --- | --- |
| > 1 | > 1 | 39.9 (≈ 141 µM) | > 50 | > 50 | > 50 | > 50 | 36.5 (≈ 129 µM) | O=C1C(Cl)=C(Nc2ccccc2)C(=O)c2ccccc21 [Compound 2] | 1.61 ± 0.11 | 13.0 ± 2.0 | 37.0 ± 1.0 | – | – |
| – | – | 8.9 (≈ 19.5 µM) | > 50 | 10.9 (≈ 23.9 µM) | 8.4 (≈ 18.4 µM) | 8.2 (≈ 18 µM) | 8.9 (≈ 19.5 µM) | CO/N=C(\C(=O)N[C@@H]1C(=O)N2C(C(=O)O)=C(COC(C)=O)CS[C@H]12)c1csc(N)n1 [CTX, cefotaxime, reference compound] | – | – | – | – | – |
| > 1 | > 1 | > 50 | 23.5 (≈ 68.4 µM) | 70.8 (≈ 206 µM) | > 50 | 31.7 (≈ 92.2 µM) | 3.2 to 5.7 (≈ 9.31 to 16.6 µM) | COc1ccc(OC)c(NC2=C(Cl)C(=O)c3ccccc3C2=O)c1 [Compound 10] | 1.94 ± 0.56 | 21.0 ± 4.0 | 20.0 ± 3.0 | 4.7 (≈ 13.7 µM) | – |
| 0.74 (≈ 2.97 µM) | 0.16 | 40 (≈ 160 µM) | 26.3 (≈ 106 µM) | 49.9 (≈ 200 µM) | > 50 | 38.8 (≈ 156 µM) | 3.2 to 5.7 (≈ 12.8 to 22.9 µM) | O=C1C=C(Nc2ccccc2)C(=O)c2ccccc21 [Compound 1, 2-phenylamino-1,4-naphthoquinone] | 1.42 ± 0.21 | 65.0 ± 1.0 | 58.0 ± 3.0 | 3.9 (≈ 15.6 µM) | – |
